This assay deals with T1, recombinant guanylate cyclase reporter cell line (Rattus norvegicus, UniProt P20595).
T1 construct: expressed in transfected cells
T1 sequence (P20595 1-619): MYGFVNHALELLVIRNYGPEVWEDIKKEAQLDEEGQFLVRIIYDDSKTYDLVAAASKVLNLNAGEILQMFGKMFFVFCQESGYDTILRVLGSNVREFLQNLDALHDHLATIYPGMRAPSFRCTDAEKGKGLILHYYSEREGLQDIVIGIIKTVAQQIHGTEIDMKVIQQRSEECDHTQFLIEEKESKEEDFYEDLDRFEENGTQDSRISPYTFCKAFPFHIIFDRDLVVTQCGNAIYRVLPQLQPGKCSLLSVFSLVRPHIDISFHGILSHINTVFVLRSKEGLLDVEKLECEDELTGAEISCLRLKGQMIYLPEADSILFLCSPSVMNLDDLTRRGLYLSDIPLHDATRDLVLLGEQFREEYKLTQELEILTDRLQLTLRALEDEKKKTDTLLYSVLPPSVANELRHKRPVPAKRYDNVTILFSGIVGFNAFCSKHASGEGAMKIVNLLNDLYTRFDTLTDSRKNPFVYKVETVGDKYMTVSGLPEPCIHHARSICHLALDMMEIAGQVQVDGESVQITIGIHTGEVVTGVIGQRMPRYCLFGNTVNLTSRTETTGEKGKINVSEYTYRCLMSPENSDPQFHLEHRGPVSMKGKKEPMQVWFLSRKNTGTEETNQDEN
T1 sequence (P19686 1-690 partner): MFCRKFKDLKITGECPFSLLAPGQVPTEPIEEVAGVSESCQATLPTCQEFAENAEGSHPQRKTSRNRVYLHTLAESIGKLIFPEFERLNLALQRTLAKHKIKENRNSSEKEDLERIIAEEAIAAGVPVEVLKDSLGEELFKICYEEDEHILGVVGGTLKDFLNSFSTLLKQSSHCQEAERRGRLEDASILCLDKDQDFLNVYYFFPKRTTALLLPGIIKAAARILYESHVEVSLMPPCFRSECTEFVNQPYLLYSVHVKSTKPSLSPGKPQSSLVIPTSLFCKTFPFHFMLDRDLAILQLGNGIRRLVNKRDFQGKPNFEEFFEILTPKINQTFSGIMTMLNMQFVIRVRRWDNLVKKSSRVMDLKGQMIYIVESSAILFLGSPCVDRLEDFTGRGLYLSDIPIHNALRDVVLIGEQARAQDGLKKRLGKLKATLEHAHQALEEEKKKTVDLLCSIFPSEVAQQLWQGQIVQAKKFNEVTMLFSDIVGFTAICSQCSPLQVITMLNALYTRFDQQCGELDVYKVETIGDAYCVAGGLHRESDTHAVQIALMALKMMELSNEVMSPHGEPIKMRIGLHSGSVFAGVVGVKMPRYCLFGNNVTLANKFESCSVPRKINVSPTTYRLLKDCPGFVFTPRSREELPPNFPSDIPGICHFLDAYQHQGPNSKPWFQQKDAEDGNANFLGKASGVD
The assay is described as follows: Effect on a recombinant guanylate cyclase reporter cell line. The conditions noted are these: for EC50: half maximal effective concentration; for MEC: minimum effective concentration. Format: cell-based. As for the experimental part:
B-1. Effect on a Recombinant Guanylate Cyclase Reporter Cell Line
The cellular activity of the compounds according to the invention was determined using a recombinant guanylate cyclase reporter cell line, as described in F. Wunder et al., Anal. Biochem. 339, 104-112 (2005).

Molecules are shown by their SMILES. Counter-ions that a name gives are not always drawn.

With `CC(C)N1CCN(c2ccc(-c3ccc(Cl)cc3N3CCCC(n4ncc(C(=O)O)c4C(F)F)C3)cc2)CC1` (single isomer, unassigned; enantiomer 2) [Example 7, 1-{1-[4-Chloro-4′-(4-isopropylpiperazin-1-yl)[biphenyl]-2-yl]piperidin-3-yl}-5-(difluoromethyl)-1H-pyrazole-4-carboxylic acid hydrochloride (Enantiomer 2)], the EC50 (as a rule, the concentration that produces a half-maximal response) amounted to 0.0433 µM and the MEC is recorded as 10.0 nM.
Take `O=C(O)c1cnn(C2CCCN(c3cc(Cl)ccc3-c3ccc(N4CCN(C5CC5)CC4)cc3)C2)c1C(F)F` (single isomer, unassigned; enantiomer 2) [Example 9, 1-{1-[4-Chloro-4′-(4-cyclopropylpiperazin-1-yl)[biphenyl]-2-yl]piperidin-3-yl}-5-(difluoromethyl)-1H-pyrazole-4-carboxylic acid hydrochloride (Enantiomer 2)]: the EC50 is 0.0365 µM and the MEC amounted to 3.0 nM.
Take `CC(C)(C)CN1CCN(c2ccc(-c3ccc(Cl)cc3N3CCCC(n4ncc(C(=O)O)c4C(F)F)C3)cc2)CC1` (single isomer, unassigned; enantiomer 2) [Example 13, 1-[(1-{4-Chloro-4′-[4-(2,2-dimethylpropyl)piperazin-1-yl][biphenyl]-2-yl}piperidin-3-yl]-5-(difluoromethyl)-1H-pyrazole-4-carboxylic acid hydrochloride (Enantiomer 2)]: the EC50 turned out to be 0.089 µM and the MEC was determined as 3.0 nM.
Consider `O=C(O)c1cnn(C2CCCN(c3cc(Cl)ccc3-c3ccc(N4CCN(CC5CCC5)CC4)cc3)C2)c1C(F)F` (single isomer, unassigned; enantiomer 2) [Example 14, 1-[1-{4-Chloro-4′-[4-(cyclobutylmethyl)piperazin-1-yl][biphenyl]-2-yl}piperidin-3-yl]-5-(difluoromethyl)-1H-pyrazole-4-carboxylic acid hydrochloride (Enantiomer 2)], for which the EC50 came to 0.0132 µM and the MEC was 1.0 nM.
As to `O=C(O)c1cnn(C2CCCN(c3cc(Cl)ccc3-c3ccc(N4CCN(CC5(F)CCC5)CC4)cc3)C2)c1C(F)F` (single isomer, unassigned; enantiomer 2) [Example 16, 1-[1-(4-Chloro-4′-{4-[(1-fluorocyclobutyl)methyl]piperazin-1-yl}[biphenyl]-2-yl)piperidin-3-yl]-5-(difluoromethyl)-1H-pyrazole-4-carboxylic acid hydrochloride (Enantiomer 2)], the EC50 came to 0.0026 µM and the MEC was 0.3 nM.
For the compound `O=C(O)c1cnn(C2CCCN(c3cc(Cl)ccc3-c3ccc(N4CCN(CC56CC(F)(C5)C6)CC4)cc3)C2)c1C(F)F` (single isomer, unassigned; enantiomer 2) [Example 17, 1-[1-(4-Chloro-4′-{4-[(3-fluorobicyclo[1.1.1]pentan-1-yl)methyl]piperazin-1-yl}[biphenyl]-2-yl)piperidin-3-yl]-5-(difluoromethyl)-1H-pyrazole-4-carboxylic acid hydrochloride (Enantiomer 2)], the concentration giving a half-maximal response (EC50) was 0.0102 µM and the MEC is given as 1.0 nM.
Regarding `O=C(O)c1cnn(C2CCCN(c3cc(Cl)ccc3-c3ccc(N4CCN(CCC(F)F)CC4)cc3)C2)c1C(F)F` (single isomer, unassigned; enantiomer 2) [Example 22, 1-(1-{4-Chloro-4′-[4-(3,3-difluoropropyl)piperazin-1-yl][biphenyl]-2-yl}piperidin-3-yl)-5-(difluoromethyl)-1H-pyrazole-4-carboxylic acid hydrochloride (Enantiomer 2)], the concentration giving a half-maximal response (EC50) came out at 0.001 µM and the MEC is below 0.3 nM.
Regarding `O=C(O)c1cnn(C2CCCN(c3cc(Cl)ccc3-c3ccc(N4CCN(CCC(F)(F)F)CC4)cc3)C2)c1C(F)F` (single isomer, unassigned; enantiomer 2) [Example 23, 1-(1-{4-Chloro-4′-[4-(3,3,3-trifluoropropyl)piperazin-1-yl][biphenyl]-2-yl}piperidin-3-yl)-5-(difluoromethyl)-1H-pyrazole-4-carboxylic acid hydrochloride (Enantiomer 2)], the EC50 is 0.001 µM and the MEC is below 0.3 nM.
On the same counts, the results for `CC(F)(F)CN1CCN(c2ccc(-c3ccc(Cl)cc3N3CCCC(n4ncc(C(=O)O)c4C(F)F)C3)cc2)CC1` (single isomer, unassigned; enantiomer 2) [Example 25, 1-(1-{4-Chloro-4′-[4-(2,2-difluoropropyl)piperazin-1-yl][biphenyl]-2-yl}piperidin-3-yl)-5-(difluoromethyl)-1H-pyrazole-4-carboxylic acid hydrochloride (Enantiomer 2)] are 0.0024 µM and 0.3 nM.
The like results for `O=C(O)c1cnn(C2CCCN(c3cc(Cl)ccc3-c3ccc(N4CCN(CCOC(F)(F)F)CC4)cc3)C2)c1C(F)F` (single isomer, unassigned; enantiomer 2) [Example 26, 1-[1-(4-Chloro-4′-{4-[2-(trifluoromethoxy)ethyl]piperazin-1-yl}[biphenyl]-2-yl)piperidin-3-yl]-5-(difluoromethyl)-1H-pyrazole-4-carboxylic acid hydrochloride (Enantiomer 2)] were, in that order, 0.0065 µM and 1.0 nM.
The like results for `O=C(O)c1cnn(C2CCCN(c3cc(Cl)ccc3-c3ccc(N4CCN(CC5(C(F)(F)F)CC5)CC4)cc3)C2)c1C(F)F` (single isomer, unassigned; enantiomer 2) [Example 40, 1-{1-[4-Chloro-4′-(4-{[1-(trifluoromethyl)cyclopropyl]methyl}piperazin-1-yl) [biphenyl]-2-yl]piperidin-3-yl}-5-(difluoromethyl)-1H-pyrazole-4-carboxylic acid hydrochloride (Enantiomer 2)] were, in that order, 0.0118 µM and 1.0 nM.
Regarding `O=C(O)c1cnn(C2CCCN(c3cc(Cl)ccc3-c3ccc(N4CCN(C5COC5)CC4)cc3)C2)c1C(F)F` (single isomer, unassigned; enantiomer 2) [Example 43, 1-(1-{4-Chloro-4′-[4-(oxetan-3-yl)piperazin-1-yl][biphenyl]-2-yl}piperidin-3-yl)-5-(difluoromethyl)-1H-pyrazole-4-carboxylic acid hydrochloride (Enantiomer 2)], the EC50 is 0.0425 µM and the MEC is reported as 10.0 nM.
The like results for `O=C(O)c1cnn(C2CCCN(c3cc(Cl)ccc3-c3ccc(N4CCCC4)cc3)C2)c1C(F)F` (single isomer, unassigned; enantiomer 2) [Example 45, 1-{1-[4-Chloro-4′-(pyrrolidin-1-yl)[biphenyl]-2-yl]piperidin-3-yl}-5-(difluoromethyl)-1H-pyrazole-4-carboxylic acid (Enantiomer 2)] were, in that order, 0.0425 µM and 3.0 nM.
Take `N#CCCN1CCN(c2ccc(-c3ccc(Cl)cc3N3CCCC(n4ncc(C(=O)O)c4C(F)F)C3)cc2)CC1` (single isomer, unassigned; enantiomer 2) [Example 46, 1-(1-{4-Chloro-4′-[4-(2-cyanoethyl)piperazin-1-yl][biphenyl]-2-yl}piperidin-3-yl)-5-(difluoromethyl)-1H-pyrazole-4-carboxylic acid (Enantiomer 2)]: the EC50 was 0.0017 µM and the MEC is reported as 0.3 nM.
Take `NC(=O)CCN1CCN(c2ccc(-c3ccc(Cl)cc3N3CCCC(n4ncc(C(=O)O)c4C(F)F)C3)cc2)CC1` (single isomer, unassigned; enantiomer 2) [Example 47, 1-(1-{4′-[4-(3-Amino-3-oxopropyl)piperazin-1-yl]-4-chloro[biphenyl]-2-yl}piperidin-3-yl)-5-(difluoromethyl)-1H-pyrazole-4-carboxylic acid (Enantiomer 2)]: the EC50 came to 0.018 µM and the MEC is reported as 3.0 nM.

Source of the values: patent publication US20240101528A1, “SUBSTITUTED PYRAZOLO PIPERIDINE CARBOXYLIC ACIDS” (BAYER AKTIENGESELLSCHAFT, priority 2020, published 2024).
